Results from patent US6358885B1, “Substituted phenylheterocyclic herbicides” (Mississippi State University, priority 1992, dated 2002).

Legend:
Assay in all cases: Test F preemergence/postemergence greenhouse plant response rating 0 to 100
Conditions in all cases: 0 to 100 scale
field violet = type: in vivo, Viola arvensis
From the text: (§1) Compounds evaluated in this test were formulated in a non-phytoxic solvent and applied to the soil surface before plant seedlings emerged (preemergence application) and to plants that were in the one-to-four leaf stage (postemergence application). A sandy loam soil was used for the preemergence test while a mixture of sandy loam soil and greenhouse potting mix in a 60:40 ratio was used for the postemergence test. Test compounds were applied within approximately one day after planting seeds for the preemergence test. Plantings of these crops and weed species were adjusted to produce plants of appropriate size for the postemergence test. All plant species were grown using normal greenhouse practices. Crop and weed species include winter barley (Hordeum vulgare cv. ‘Igri’), blackgrass (Alopecurus myosuroides), chickweed (Stellaria media), downy brome (Bromus tectorum), field violet (Viola arvensis), galium (Galium aparine), green foxtail (Setaria viridis), kochia (Kochia scoparia), lambsquarters (Chenopodium album), speedwell (Veronica persica), rape (Brassica napus), ryegrass (Lolium multiflorum), sugar beet (Beta vulgaris cv. ‘USl’), sunflower (Helianthus annuus cv. ‘Russian Giant’), spring wheat (Triticum aestivum cv. ‘ERA’), winter wheat (Triticum aestivum cv. ‘Talent’), wild buckwheat (Polygonum convolvulus), wild mustard (Sinapis arvensis), wild oat (Avena fatua), and wild radish (Raphanus raphanistrum). Blackgrass, galium and wild oat were treated at two growth stages. […] Treated plants and untreated controls were maintained in a greenhouse for approximately 21 to 28 days, after which all treated plants were compared to untreated controls and visually evaluated. […] A dash response (-) means no test result.

wild buckwheat = type: in vivo, Polygonum convolvulus
From the text: as §1

rape = type: in vivo, Brassica napus
From the text: as §1

blackgrass = type: in vivo, Alopecurus myosuroides
From the text: as §1

sunflower = type: in vivo, Helianthus annuus cv. ‘Russian Giant’
From the text: as §1

[1] = POSTEMERGENCE, Rate 4 g/ha, stage (1) two to three leaves
[2] = POSTEMERGENCE, Rate 4 g/ha, stage (2) approximately four leaves or initial tillering
[3] = POSTEMERGENCE, Rate 8 g/ha, stage (1) two to three leaves
[4] = POSTEMERGENCE, Rate 8 g/ha, stage (2) approximately four leaves or initial tillering
[5] = POSTEMERGENCE, Rate 16 g/ha, stage (1) two to three leaves
[6] = POSTEMERGENCE, Rate 16 g/ha, stage (2) approximately four leaves or initial tillering
[7] = POSTEMERGENCE, Rate 32 g/ha, stage (1) two to three leaves
[8] = POSTEMERGENCE, Rate 32 g/ha, stage (2) approximately four leaves or initial tillering

CCOC(=O)COc1cc(-c2nn3c(c2Cl)CCCC3)c(F)cc1Cl [Compound 42]
70: Field violet plant response rating (field violet; POSTEMERGENCE, Rate 16 g/ha) | Rape plant response rating (rape; POSTEMERGENCE, Rate 16 g/ha)
30: Sunflower plant response rating (sunflower; POSTEMERGENCE, Rate 8 g/ha)
100: Wild buckwheat plant response rating (wild buckwheat; POSTEMERGENCE, Rate 8 g/ha) | Wild buckwheat plant response rating (wild buckwheat; POSTEMERGENCE, Rate 16 g/ha) | Rape plant response rating (rape; POSTEMERGENCE, Rate 32 g/ha) | Sunflower plant response rating (sunflower; POSTEMERGENCE, Rate 32 g/ha)
80: Field violet plant response rating (field violet; POSTEMERGENCE, Rate 32 g/ha)
20: Rape plant response rating (rape; POSTEMERGENCE, Rate 4 g/ha) | Sunflower plant response rating (sunflower; POSTEMERGENCE, Rate 4 g/ha)
60: Wild buckwheat plant response rating (wild buckwheat; POSTEMERGENCE, Rate 2 g/ha) | Wild buckwheat plant response rating (wild buckwheat; POSTEMERGENCE, Rate 4 g/ha) | Sunflower plant response rating (sunflower; POSTEMERGENCE, Rate 16 g/ha)
0: Field violet plant response rating (field violet; POSTEMERGENCE, Rate 2 g/ha) | Field violet plant response rating (field violet; POSTEMERGENCE, Rate 4 g/ha) | Rape plant response rating (rape; POSTEMERGENCE, Rate 2 g/ha) | Blackgrass (1) plant response rating (blackgrass; POSTEMERGENCE, Rate 2 g/ha, stage (1) two to three leaves) | Blackgrass (2) plant response rating (blackgrass; POSTEMERGENCE, Rate 2 g/ha, stage (2) approximately four leaves or initial tillering) | Blackgrass (1) plant response rating (blackgrass; [1]) | Blackgrass (2) plant response rating (blackgrass; [2]) | Blackgrass (1) plant response rating (blackgrass; [3]) | Blackgrass (2) plant response rating (blackgrass; [4]) | Blackgrass (1) plant response rating (blackgrass; [5]) | Blackgrass (2) plant response rating (blackgrass; [6]) | Blackgrass (1) plant response rating (blackgrass; [7]) | Blackgrass (2) plant response rating (blackgrass; [8]) | Sunflower plant response rating (sunflower; POSTEMERGENCE, Rate 2 g/ha)
10: Field violet plant response rating (field violet; POSTEMERGENCE, Rate 8 g/ha)
40: Rape plant response rating (rape; POSTEMERGENCE, Rate 8 g/ha)

C#CCOc1cc(-c2nn3c(c2Br)CCCC3)c(F)cc1Cl [Compound 26]
70: Field violet plant response rating (field violet; PREEMERGENCE, Rate 16 g/ha)
30: Wild buckwheat plant response rating (wild buckwheat; PREEMERGENCE, Rate 16 g/ha) | Blackgrass (1) plant response rating (blackgrass; POSTEMERGENCE, Rate 250 g/ha, stage (1) two to three leaves)
50: Rape plant response rating (rape; POSTEMERGENCE, Rate 16 g/ha)
10: Blackgrass (2) plant response rating (blackgrass; POSTEMERGENCE, Rate 64 g/ha, stage (2) approximately four leaves or initial tillering) | Blackgrass (1) plant response rating (blackgrass; POSTEMERGENCE, Rate 125 g/ha, stage (1) two to three leaves) | Blackgrass (2) plant response rating (blackgrass; POSTEMERGENCE, Rate 125 g/ha, stage (2) approximately four leaves or initial tillering) | Sunflower plant response rating (sunflower; PREEMERGENCE, Rate 125 g/ha)
0: Field violet plant response rating (field violet; PREEMERGENCE, Rate 4 g/ha) | Field violet plant response rating (field violet; PREEMERGENCE, Rate 8 g/ha) | Wild buckwheat plant response rating (wild buckwheat; PREEMERGENCE, Rate 4 g/ha) | Wild buckwheat plant response rating (wild buckwheat; PREEMERGENCE, Rate 8 g/ha) | Rape plant response rating (rape; POSTEMERGENCE, Rate 4 g/ha) | Rape plant response rating (rape; POSTEMERGENCE, Rate 8 g/ha) | Rape plant response rating (rape; PREEMERGENCE, Rate 4 g/ha) | Rape plant response rating (rape; PREEMERGENCE, Rate 8 g/ha) | Rape plant response rating (rape; PREEMERGENCE, Rate 16 g/ha) | Blackgrass (1) plant response rating (blackgrass; [1]) | Blackgrass (2) plant response rating (blackgrass; [2]) | Blackgrass (1) plant response rating (blackgrass; [3]) | Blackgrass (2) plant response rating (blackgrass; [4]) | Blackgrass (1) plant response rating (blackgrass; [5]) | Blackgrass (2) plant response rating (blackgrass; [6]) | Blackgrass (1) plant response rating (blackgrass; [7]) | Blackgrass (2) plant response rating (blackgrass; [8]) | Blackgrass (1) plant response rating (blackgrass; POSTEMERGENCE, Rate 64 g/ha, stage (1) two to three leaves) | Blackgrass (1) plant response rating (blackgrass; PREEMERGENCE, Rate 4 g/ha, Blackgrass (1)) | Blackgrass (2) plant response rating (blackgrass; PREEMERGENCE, Rate 4 g/ha, Blackgrass (2)) | Blackgrass (1) plant response rating (blackgrass; PREEMERGENCE, Rate 8 g/ha, Blackgrass (1)) | Blackgrass (2) plant response rating (blackgrass; PREEMERGENCE, Rate 8 g/ha, Blackgrass (2)) | Blackgrass (1) plant response rating (blackgrass; PREEMERGENCE, Rate 16 g/ha, Blackgrass (1)) | Blackgrass (2) plant response rating (blackgrass; PREEMERGENCE, Rate 16 g/ha, Blackgrass (2)) | Blackgrass (1) plant response rating (blackgrass; PREEMERGENCE, Rate 32 g/ha, Blackgrass (1)) | Blackgrass (2) plant response rating (blackgrass; PREEMERGENCE, Rate 32 g/ha, Blackgrass (2)) | Blackgrass (1) plant response rating (blackgrass; PREEMERGENCE, Rate 64 g/ha, Blackgrass (1)) | Blackgrass (2) plant response rating (blackgrass; PREEMERGENCE, Rate 64 g/ha, Blackgrass (2)) | Sunflower plant response rating (sunflower; POSTEMERGENCE, Rate 4 g/ha) | Sunflower plant response rating (sunflower; POSTEMERGENCE, Rate 8 g/ha) | Sunflower plant response rating (sunflower; POSTEMERGENCE, Rate 16 g/ha) | Sunflower plant response rating (sunflower; PREEMERGENCE, Rate 4 g/ha) | Sunflower plant response rating (sunflower; PREEMERGENCE, Rate 8 g/ha) | Sunflower plant response rating (sunflower; PREEMERGENCE, Rate 16 g/ha) | Sunflower plant response rating (sunflower; PREEMERGENCE, Rate 32 g/ha) | Sunflower plant response rating (sunflower; PREEMERGENCE, Rate 64 g/ha)
80: Rape plant response rating (rape; PREEMERGENCE, Rate 125 g/ha)
20: Rape plant response rating (rape; PREEMERGENCE, Rate 32 g/ha) | Blackgrass (1) plant response rating (blackgrass; PREEMERGENCE, Rate 125 g/ha, Blackgrass (1)) | Sunflower plant response rating (sunflower; POSTEMERGENCE, Rate 32 g/ha)
15: Blackgrass (2) plant response rating (blackgrass; POSTEMERGENCE, Rate 250 g/ha, stage (2) approximately four leaves or initial tillering)
60: Rape plant response rating (rape; PREEMERGENCE, Rate 64 g/ha) | Sunflower plant response rating (sunflower; POSTEMERGENCE, Rate 64 g/ha) | Sunflower plant response rating (sunflower; POSTEMERGENCE, Rate 250 g/ha) | Sunflower plant response rating (sunflower; PREEMERGENCE, Rate 250 g/ha)
100: Field violet plant response rating (field violet; POSTEMERGENCE, Rate 4 g/ha) | Field violet plant response rating (field violet; POSTEMERGENCE, Rate 8 g/ha) | Field violet plant response rating (field violet; POSTEMERGENCE, Rate 16 g/ha) | Field violet plant response rating (field violet; POSTEMERGENCE, Rate 32 g/ha) | Field violet plant response rating (field violet; POSTEMERGENCE, Rate 64 g/ha) | Field violet plant response rating (field violet; POSTEMERGENCE, Rate 125 g/ha) | Field violet plant response rating (field violet; POSTEMERGENCE, Rate 250 g/ha) | Field violet plant response rating (field violet; PREEMERGENCE, Rate 32 g/ha) | Field violet plant response rating (field violet; PREEMERGENCE, Rate 64 g/ha) | Field violet plant response rating (field violet; PREEMERGENCE, Rate 125 g/ha) | Field violet plant response rating (field violet; PREEMERGENCE, Rate 250 g/ha) | Wild buckwheat plant response rating (wild buckwheat; POSTEMERGENCE, Rate 4 g/ha) | Wild buckwheat plant response rating (wild buckwheat; POSTEMERGENCE, Rate 8 g/ha) | Wild buckwheat plant response rating (wild buckwheat; POSTEMERGENCE, Rate 16 g/ha) | Wild buckwheat plant response rating (wild buckwheat; POSTEMERGENCE, Rate 32 g/ha) | Wild buckwheat plant response rating (wild buckwheat; POSTEMERGENCE, Rate 64 g/ha) | Wild buckwheat plant response rating (wild buckwheat; POSTEMERGENCE, Rate 125 g/ha) | Wild buckwheat plant response rating (wild buckwheat; POSTEMERGENCE, Rate 250 g/ha) | Wild buckwheat plant response rating (wild buckwheat; PREEMERGENCE, Rate 32 g/ha) | Wild buckwheat plant response rating (wild buckwheat; PREEMERGENCE, Rate 64 g/ha) | Wild buckwheat plant response rating (wild buckwheat; PREEMERGENCE, Rate 125 g/ha) | Wild buckwheat plant response rating (wild buckwheat; PREEMERGENCE, Rate 250 g/ha) | Rape plant response rating (rape; POSTEMERGENCE, Rate 32 g/ha) | Rape plant response rating (rape; POSTEMERGENCE, Rate 64 g/ha) | Rape plant response rating (rape; POSTEMERGENCE, Rate 125 g/ha) | Rape plant response rating (rape; POSTEMERGENCE, Rate 250 g/ha) | Rape plant response rating (rape; PREEMERGENCE, Rate 250 g/ha) | Sunflower plant response rating (sunflower; POSTEMERGENCE, Rate 125 g/ha)
40: Blackgrass (2) plant response rating (blackgrass; PREEMERGENCE, Rate 125 g/ha, Blackgrass (2)) | Blackgrass (1) plant response rating (blackgrass; PREEMERGENCE, Rate 250 g/ha, Blackgrass (1)) | Blackgrass (2) plant response rating (blackgrass; PREEMERGENCE, Rate 250 g/ha, Blackgrass (2))
